Assay results from publication PMC7168207, “Dibasic Derivatives of Phenylcarbamic Acid as Prospective Antibacterial Agents Interacting with Cytoplasmic Membrane” (Antibiotics, 2020).
Where “and” joins values, the source holds several entries; their conditions need not be identical. Equal values may be shown once. Marks after values point to notes of the source that are not given here.

How the values were obtained:
[1] = set-up: method as in PMID 30274224; conditions: methanolic solutions, c = 8.0 × 10^−5 M; cited from earlier work
[2] = system: methicillin-resistant S. aureus 63718; test: MIC, broth microdilution; type: cell-based, Staphylococcus aureus; conditions: Staphylococcus aureus; MRSA1 = S. aureus 63718; read-out: MICs
How it was run: (§1)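 Broth microdilution in CaMH (staphylococci) or BHI (enterococci), 5 × 10^5 CFU/mL per well, 37 °C aerobic overnight.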

[3] = system: methicillin-resistant S. aureus SA 630; test: MIC, broth microdilution; type: cell-based, Staphylococcus aureus; conditions: Staphylococcus aureus; MRSA2 = SA 630; read-out: MICs
How it was run: as §1

[4] = system: vancomycin-resistant enterococci VRE 368; test: MIC, broth microdilution; type: cell-based, Enterococcus faecalis; conditions: Enterococcus; VRE2 = VRE 368; read-out: MICs
How it was run: as §1

[5] = system: vancomycin-resistant enterococci VRE 342B; test: MIC, broth microdilution; type: cell-based, Enterococcus faecalis; conditions: Enterococcus; VRE1 = VRE 342B; read-out: MICs
How it was run: as §1

[6] = system: vancomycin-resistant enterococci VRE 725B; test: MIC, broth microdilution; type: cell-based, Enterococcus faecalis; conditions: Enterococcus; VRE3 = VRE 725B; read-out: MICs
How it was run: as §1

E. faecalis ATCC 29212 = test: MIC, broth microdilution; type: cell-based, Enterococcus faecalis; conditions: Enterococcus faecalis, ATCC 29212 / ATCC 29213; EF = E. faecalis ATCC 29213
How it was run: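 Overnight colonies from blood agar were suspended in PBS to 0.5 McFarland and diluted to 5 × 10^5 CFU/mL final in wells. Staphylococci were tested in cation-adjusted Mueller–Hinton broth and enterococci in brain heart infusion.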

MRSA 63718 = test: time-kill study; type: cell-based, Staphylococcus aureus; conditions: MRSA1
Description: (§2) Time-kill studies are used to evaluate the dynamics of antibacterial activity. As mentioned above, a pre-test to determine minimum bactericidal concentration (MBC) by sub-cultivation of aliquots on agar was made (see Section 3.4). […] Time-kill studies were made with methicillin-susceptible S. aureus ATCC 29213 and methicillin-resistant MRSA 63718, vancomycin-susceptible E. faecalis ATCC 29212, and all three VRE isolates. Vancomycin was used as a control (Table 6).
(§3) The method of time-kill curves was used to study the bactericidal effect of selected compounds. […] The experiment was performed with S. aureus ATCC 29213, MRSA 63718, E. faecalis ATCC 29212, and all VRE isolates. […] The tubes were inoculated by bacterial inoculum in the exponential phase of growth to get a final concentration of 7.5 × 10^6 CFU/mL. The tubes were incubated statically at 37 °C. Immediately after inoculation and after 4, 6, 8, and 24 h, 100 µL of the sample was serially diluted (1:10) in PBS. Then, 2 × 20 µL from each dilution were put onto a Mueller–Hinton agar plate and cultivated at 37 °C for 24 h. After incubation, CFUs of dilutions containing 5–50 colonies were counted. Results were expressed as a decrease of log10(CFU) in each time compared to the starting inoculum. Bactericidal effect is defined as a −3log decrease of CFU/mL compared to the growth control in time 0. The test was made in duplicate on two separate occasions, and the results were averaged. The growth curves with error bars are shown in Figures S1 and S2 in Supplementary Materials.

S. aureus ATCC 29213 = test: time-kill study; type: cell-based, Staphylococcus aureus; conditions: SA
Description: as §2, §3

[7] = system: Candida albicans CCM 8261; test: minimum fungistatic concentration, RPMI 1640; type: cell-based; conditions: CCM8261, CA = C albicans CCM 8261, 48 h
How it was run: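 Broth microdilution in RPMI 1640 with a final inoculum of 10^3 CFU/mL, incubated 48 h at 37 °C. The endpoint was the lowest concentration giving visually complete (100%) growth inhibition.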

[8] = system: S. aureus ATCC 29213 biofilm; test: biofilm inhibition assay (crystal violet); type: cell-based, Staphylococcus aureus; conditions: ≥80% inhibition of biofilm formation
Experimental: The ability of compounds 1f, 1g, and 1h to inhibit biofilm growth and destroy the matured biofilm of S. aureus ATCC 29213 was investigated. The inhibitory activity was studied by the method with crystal violet. The activity to disrupt matured biofilm was evaluated as a decrease of metabolic activity using the MTT assay.
The plates were inoculated by inoculum of S. aureus ATCC 29213 grown in TSB + 2% glucose to exponential phase. Before the inoculation of the plate, the original inoculum was diluted to 1 McFarland and then 1:100 in fresh TSB + 2% glucose, to reach the final concentrations in the wells of […]. […] The plates were incubated at 37 °C for 48 h. After incubation, the contents of the wells were removed, and the plates were washed three times by sterile PBS. After drying, 125 μL of 0.5% crystal violet was added to each well and the plates were stained at room temperature for 20 min. Then the dye was removed, and the plates were washed three times by sterile PBS. The colored biofilm was detached from the wells using 33% solution of acetic acid. The absorbance at 595 nm was measured. As a blank, a non-inoculated plate treated in the same way was used. […] The minimum biofilm inhibitory concentration was the lowest concentration of the compounds, which inhibited the growth of 80% bacteria compared to the growth control. The experiment was made in duplicate and repeated at least three times.

MIC [2]: 8 µg/mL and 15 µM
MIC [3]: 8 µg/mL and 15 µM
MIC [4]: 4 µg/mL and 7.51 µM
MIC [5]: 4 µg/mL and 7.51 µM
MIC [6]: 4 µg/mL and 7.51 µM
MIC (E. faecalis ATCC 29212): 8 µg/mL and 15 µM
MIC [7]: 8 µg/mL and 15 µM
SMILES: CCCCCCCOc1cccc(NC(=O)OC(CN(CCC)CCC)CN2CCCC2)c1.Cl.Cl (stereo not shown) [1h, 1-[3-(Dipropylammonio)-2-({[3-(heptyloxy)phenyl]carbamoyl}oxy)propyl]pyrrolidinium dichloride]
log ε2 (Ch-T) [1]: 4.27
Log10 Difference in CFU/mL from Inoculum (MRSA 63718; 1 × MIC, 4 h): −0.73 * log10 CFU/mL
Log10 Difference in CFU/mL from Inoculum (MRSA 63718; 1 × MIC, 6 h): −0.11 log10 CFU/mL
Log10 Difference in CFU/mL from Inoculum (MRSA 63718; 1 × MIC, 8 h): 0.98 log10 CFU/mL
Log10 Difference in CFU/mL from Inoculum (MRSA 63718; 1 × MIC, 24 h): 1.58 log10 CFU/mL
Log10 Difference in CFU/mL from Inoculum (MRSA 63718; 2 × MIC, 4 h): −0.92 * log10 CFU/mL
Log10 Difference in CFU/mL from Inoculum (MRSA 63718; 2 × MIC, 6 h): −0.42 * log10 CFU/mL
Log10 Difference in CFU/mL from Inoculum (MRSA 63718; 2 × MIC, 8 h): −0.13 log10 CFU/mL
Log10 Difference in CFU/mL from Inoculum (MRSA 63718; 2 × MIC, 24 h): 1.62 log10 CFU/mL
Log10 Difference in CFU/mL from Inoculum (MRSA 63718; 4 × MIC, 4 h): −2.48 * log10 CFU/mL
Log10 Difference in CFU/mL from Inoculum (MRSA 63718; 4 × MIC, 6 h): −2.40 * log10 CFU/mL
Log10 Difference in CFU/mL from Inoculum (MRSA 63718; 4 × MIC, 8 h): −2.08 * log10 CFU/mL
Log10 Difference in CFU/mL from Inoculum (MRSA 63718; 4 × MIC, 24 h): 1.35 log10 CFU/mL
Log10 Difference in CFU/mL from Inoculum (S. aureus ATCC 29213; 1 × MIC, 4 h): 0.08 log10 CFU/mL
Log10 Difference in CFU/mL from Inoculum (S. aureus ATCC 29213; 1 × MIC, 6 h): 0.31 log10 CFU/mL
Log10 Difference in CFU/mL from Inoculum (S. aureus ATCC 29213; 1 × MIC, 8 h): 0.50 log10 CFU/mL
Log10 Difference in CFU/mL from Inoculum (S. aureus ATCC 29213; 1 × MIC, 24 h): 2.07 log10 CFU/mL
Log10 Difference in CFU/mL from Inoculum (S. aureus ATCC 29213; 2 × MIC, 4 h): 0.05 log10 CFU/mL
Log10 Difference in CFU/mL from Inoculum (S. aureus ATCC 29213; 2 × MIC, 6 h): 0.10 log10 CFU/mL
Log10 Difference in CFU/mL from Inoculum (S. aureus ATCC 29213; 2 × MIC, 8 h): 0.05 log10 CFU/mL
Log10 Difference in CFU/mL from Inoculum (S. aureus ATCC 29213; 2 × MIC, 24 h): 2.01 log10 CFU/mL
Log10 Difference in CFU/mL from Inoculum (S. aureus ATCC 29213; 4 × MIC, 4 h): −0.25 log10 CFU/mL
Log10 Difference in CFU/mL from Inoculum (S. aureus ATCC 29213; 4 × MIC, 6 h): −0.13 log10 CFU/mL
Log10 Difference in CFU/mL from Inoculum (S. aureus ATCC 29213; 4 × MIC, 8 h): −0.08 log10 CFU/mL
Log10 Difference in CFU/mL from Inoculum (S. aureus ATCC 29213; 4 × MIC, 24 h): 1.93 log10 CFU/mL
minimum biofilm inhibitory concentration relative to MIC against planktonic cells [8]: equal to minimum inhibitory concentration against planktonic cells
MBIC80 (minimum biofilm inhibitory concentration) ([8]; 48 h): 8 µg/mL
